The text below walks through data of patent US8871751B2, “Compositions and methods relating to nuclear hormone and steroid hormone receptors including inhibitors of estrogen receptor alpha-mediated gene expression and inhibition of breast cancer” (The Board of Trustees of the University of Illinois, priority 2008, dated 2014).

Entries after “also recorded” stand apart in the source; their conditions may differ. Where two headings read alike, the source gives them in different places.

The test system of data set [1] is BG-1 ovarian cancer cells. The experiment in a line: BG-1 cell growth assay (MTS). In kind it is cell-based. The settings on record: for IC50: 10 pM E2, 5 days, MTS, read-out: IC50 for inhibition of E2-dependent growth of BG-1 cells. On the procedure:
ERα positive BG-1 ovarian cancer cells (44) were provided by Prof. K. Korach. ERα negative MDA-MB-231 human breast cancer cell lines were provided by Prof. A. Nardulli. The cells are maintained in phenol red-free MEM medium with 5% calf serum and antibiotics. 4 days before hormone induction, cells are switched to phenol red-free MEM medium containing 5% 2XCD-treated calf serum for BG-1 cells. For BG-1 cell growth assays, 250 cells in 100 μl of phenol-red-free medium were added to wells of a 96-well plate. After 24 h, the indicated concentrations of the test compounds and 10 pM E2 or ethanol vehicle were added to each well. Compounds in DMSO were diluted in medium so that the DMSO concentration was not greater than 0.5%. Cell viability assays were carried out 5-6 days later using Promega CellTiter 96®Aqueous One Solution Cell Proliferation Assay (Promega, Wis.).

Data set [2] concerns ERα negative MDA-MB-231 cells. The experiment in a line: MDA-MB-231 cell growth / toxicity assay (MTS). In kind it is cell-based, human. Particulars: for effect on growth of MDA-MB-231 cells (toxicity): up to 30 μM, Example 1 assays (1 day / 5 days); for effect on growth of ER negative MDA-MB-231 cells: all concentrations. On the procedure:
ERα negative MDA-MB-231 human breast cancer cells were used to test for generalized toxicity of the test compounds. To parallel the reporter gene assays in stably transfected T47D breast cancer cells, 5,000 MDA-MB-231 cells per well were plated in a 96 well plate. The cells were maintained in the medium described above for the T47D cells. One day after plating, the same concentration of test compound used in the reporter gene assay (up to 30 μM) was added. After 24 h the MTS assay was carried out as described above. A more stringent toxicity assay parallels the assay for inhibition of estrogen-dependent growth of BG-1 cells. 250 MDA-MB-231 cells were plated per well and maintained and assayed as described for the BG-1 cells. Several compounds without detectable toxicity in the 24-h assay inhibited MDA-MB-231 cell growth in the 5-6 day assay.
Assays for Cell Growth and Viability. Cells were maintained in the media listed above containing CD-treated serum for at least 4 days prior to the experiment. To minimize cell aggregation, MCF-7 cells were harvested in 10 mM Hepes, pH 7.4, 1 mM EDTA. Other cell lines were harvested in trypsin-EDTA. 1,000 cells were plated into each well of a 96 well plate. For slow growing ZR-75 cells, 2,000 cells were plated/well. The cells were maintained in medium containing CD-treated serum for 24 hours. At 24 hours the medium was changed and E2 and DMSO vehicle or TPSF in DMSO was added. The medium was replaced after 2 days (except for BT474 cells whose medium was not changed). After 4 days viable cells were determined using a cell viability test, Promega CellTiter 96 Aqueous One Solution Cell Proliferation Assay (MTS) (Promega, Wis.).

The next data set addresses T1, GR (Rattus norvegicus, UniProt P06536).
T1 construct: expressed in transfected cells; host or cells: T47D/A1-2
T1 sequence (P06536 1-795): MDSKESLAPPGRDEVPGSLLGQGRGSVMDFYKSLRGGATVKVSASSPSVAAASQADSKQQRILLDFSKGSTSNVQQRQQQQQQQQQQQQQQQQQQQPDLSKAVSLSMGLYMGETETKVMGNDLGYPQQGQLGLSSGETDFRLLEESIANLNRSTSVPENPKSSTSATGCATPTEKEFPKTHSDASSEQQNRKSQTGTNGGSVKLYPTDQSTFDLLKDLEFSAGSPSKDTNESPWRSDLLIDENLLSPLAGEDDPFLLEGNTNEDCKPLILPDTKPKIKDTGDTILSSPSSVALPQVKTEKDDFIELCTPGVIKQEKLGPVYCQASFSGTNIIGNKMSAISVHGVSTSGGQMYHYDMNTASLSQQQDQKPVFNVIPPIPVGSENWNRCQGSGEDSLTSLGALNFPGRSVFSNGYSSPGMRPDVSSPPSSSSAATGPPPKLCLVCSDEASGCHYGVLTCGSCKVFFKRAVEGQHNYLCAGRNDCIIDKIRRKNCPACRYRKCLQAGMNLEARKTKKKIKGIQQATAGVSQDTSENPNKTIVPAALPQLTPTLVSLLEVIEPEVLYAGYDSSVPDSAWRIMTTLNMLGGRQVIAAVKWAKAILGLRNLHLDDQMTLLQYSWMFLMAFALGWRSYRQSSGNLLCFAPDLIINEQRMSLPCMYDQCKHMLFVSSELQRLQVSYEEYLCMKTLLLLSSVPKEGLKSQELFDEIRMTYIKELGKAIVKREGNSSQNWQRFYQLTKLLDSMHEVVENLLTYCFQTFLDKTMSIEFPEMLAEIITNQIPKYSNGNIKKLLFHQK
Nature of the data set: GR transactivation, MMTV-luciferase reporter in T47D cells. Format: cell-based, human. On the procedure:
The T47D-KBluc cells stably express an (ERE)3-luciferase reporter gene (38). Cells were maintained in phenol red-free RPMI 1640 with 2 mM L-glutamine, 1.5 g/l sodium bicarbonate, 4.5 g/l glucose, 10 mM Hepes, pH 7.5, 1 mM sodium pyruvate, 10% FBS (Atlanta Biological, Atlanta, Ga.) and antibiotics. Four days before E2 induction, the cells were switched to the above medium, with 10% 2× charcoal-dextran-treated calf serum instead of FBS. 200,000 cells/well were transferred to each well of a 24-well plate. After 24 h the indicated concentrations of the test compounds were added in DMSO and E2 was added to 20 pM. After 24 h cells were washed once in PBS, and 150 μl 1× Passive Lysis Buffer (Promega, Madison Wis.) was used to lyse the cells. Luciferase activity was determined using firefly luciferase reagents from Promega (Madison, Wis.). T47D cells stably transfected to express GR and a mouse mammary tumor virus luciferase reporter that responds to liganded GR and PR were maintained and assayed in medium containing 5 nM progesterone for PR assays, or 2.5 nM dexamethsaone for GR assays, essentially as described (39).
Reporter Gene Assays. TPSF was identified by reporter gene assays comparing the ability of ˜200 compounds structurally related to TPBM (see reference 19) to inhibit transcription of a stably transfected (ERE)3-luciferase reporter gene in T47D-KBluc breast cancer cells (20). AR was assayed in stably transfected HeLa cells and GR was assayed in stably transfected T47D cells maintained as described above. Four days before each experiment the cells were switched to medium containing CD-treated serum as described above. The HeLaAR cells were plated at 100,000 cells/well and the T47D/A1-2 and T47D-KBluc cells were plated at 200,000 cells/well in 1 ml of their respective media in 24-well plates. After 24 hours the indicated concentrations of E2, dihydrotestosterone (DHT) or dexamethasone (Dex) and DMSO vehicle, with or without TPSF, were added to each well. After 24 hours, the cells were washed once in phosphate buffered saline and lysed using 100 μl of 1× Passive Lysis Buffer (Promega, Madison Wis.). Luciferase activity was determined using BrightGlo firefly luciferase reagent from Promega (Madison, Wis.).

For a further data set, the system named is 60 cancer cell lines. The settings on record: independent testing at NCI Developmental Therapeutics Program, cited from earlier work.

In the case of `CN1CCC(C#N)c2ccccc21` (stereo not drawn) [Compound 1529], the IC50 (commonly the midpoint of a concentration-inhibition curve) in data set [1] is around 5 µM. Also, the “concentration inhibiting growth of BG-1 cells in the absence of E2” value in data set [1] (no E2, 5 days) is above 5 µM. Further, the “reduction of growth of MDA-MB-231 cells” value in data set [2] (30 μM, 5 days) is 50-60%. Moreover, the “effect on growth of MDA-MB-231 cells” value in data set [2] (1-20 μM, 5 days) is “unaffected”.

Turning to `Cn1c(=O)c2nc(CSCc3ccccc3)[nH]c2n(C)c1=O` [Compound 95910, 8-Benzylsulfanylmethyl-1,3-dimethyl-3,7-dihydro-purine-2,6-dione], the inhibition (usually the change of the read-out against control, counted positive when it falls) at 30 µM at GR (T47D, 30 μM, 2.5 nM dexamethasone) was around 35%. At GR (up to 20 μM, 2.5 nM dexamethasone), the “effect on GR transactivation” value was “did not inhibit”. For the same compound, the “potency for inhibiting E2-ERα-dependent cell growth relative to nonspecific toxicity” value in data set [1] was above 10 fold. The IC50 in data set [1] (Homo sapiens, BG-1, 120 h) stood at 5 µM. The “effect on E2-independent growth of BG-1 cells” value in data set [1] (no E2, 5 days) is given as “had no effect”. In addition, the “effect on growth of MDA-MB-231 cells (toxicity)” value in data set [2] is given as “No toxicity”; in data set [2] (listed as TPBM), “had no effect; also recorded: no inhibition”. Moreover, the “effect on breast and ovarian cell growth” value in the data set with 60 cancer cell lines (up to 100 μM) was “did not inhibit”.

For `Cn1c(=S)c2[nH]c(SCCCC(=O)c3ccc(F)cc3)nc2n(C)c1=O` [TPSF, Butyrophenone, p-fluoro-4-(1,2,3,6,-tetrahydro-1,3-dimethyl-2-oxo-6-thionopurin-8-ylthio)], the IC50 on GR (stably transfected T47D cells, 100 nM Dex, 24 h, read-out: IC50 for inhibition of GR gene expression (MMTV-Luc)) was 10 µM; in data set [2] (Homo sapiens, MDA-MB-231, 96 h, 4 days, MTS, read-out: IC50 for inhibition of MDA-MB-231 (ER Neg. cells) cell growth), above 30 µM. Further, the “inhibition of growth of MDA-MB-231 cells” value in data set [2] (all concentrations tested, including 30 μM, 4 days) is reported as 0%. The “effect on growth of ER negative MDA-MB-231 cells” value in data set [2] (including 30 μM, 4 days) is “did not inhibit growth; also recorded: lacks toxicity”; in data set [2] (including 30 μM, 4 days, listed as 97998/TPSF), “did not inhibit growth; also recorded: does not inhibit growth”. Moreover, in the data set on 60 cancer cell lines (10 μM), the “effect on growth of a panel of 60 cancer cell lines” value is “does not inhibit growth”.
